From ChEMBL document CHEMBL4308841, “Synthesis, in vitro antiproliferative activity, and kinase inhibitory effects of pyrazole-containing diarylureas and diarylamides” (Eur J Med Chem, 2018)
pIC50: −log10 of the molar value.

What was measured:
DU-145 = test: Growth inhibition of human DU145 cells assessed as cell growth at 0.1 uM incubated for 48 hrs by sulforhodamine B assay relative to control; type: functional; settings: DU-145, 48 h, read-out: Activity
HCT-116 = test: Growth inhibition of human HCT116 cells incubated for 48 hrs by sulforhodamine B assay; type: functional, cell-based; settings: HCT-116, 48 h
SK-OV-3 = test: Growth inhibition of human SKOV3 cells assessed as cell growth at 0.1 uM incubated for 48 hrs by sulforhodamine B assay relative to control; type: functional; settings: SK-OV-3, 48 h, read-out: Activity
786-0 [1] = test: Growth inhibition of human 786-0 cells assessed as cell growth at 0.1 uM incubated for 48 hrs by sulforhodamine B assay relative to control; type: functional; settings: 786-0, 48 h, read-out: Activity
MCF7 [2] = test: Growth inhibition of human MCF7 cells assessed as cell growth at 0.1 uM incubated for 48 hrs by sulforhodamine B assay relative to control; type: functional; settings: MCF7, 48 h, read-out: Activity
MCF7 [3] = test: Growth inhibition of human MCF7 cells assessed as cell growth at 0.01 uM incubated for 48 hrs by sulforhodamine B assay relative to control; type: functional; settings: MCF7, 48 h, read-out: Activity
786-0 [4] = test: Growth inhibition of human 786-0 cells assessed as cell growth at 1 uM incubated for 48 hrs by sulforhodamine B assay relative to control; type: functional; settings: 786-0, 48 h, read-out: Activity
NCI-H522 = test: Growth inhibition of human NCI-H522 cells assessed as cell growth at 0.01 uM incubated for 48 hrs by sulforhodamine B assay relative to control; type: functional; settings: NCI-H522, 48 h, read-out: Activity
UACC-257 = test: Growth inhibition of human UACC257 cells assessed as cell growth at 0.1 uM incubated for 48 hrs by sulforhodamine B assay relative to control; type: functional; settings: UACC-257, 48 h, read-out: Activity
NCI/ADR-RES = test: Growth inhibition of human NCI/ADR-RES cells assessed as cell growth at 0.1 uM incubated for 48 hrs by sulforhodamine B assay relative to control; type: functional; settings: read-out: Activity
LOX IMVI [5] = test: Growth inhibition of human LOXIMVI cells incubated for 48 hrs by sulforhodamine B assay; type: functional
ACHN = test: Growth inhibition of human ACHN cells incubated for 48 hrs by sulforhodamine B assay; type: functional, cell-based
HOP-62 = test: Growth inhibition of human HOP62 cells assessed as cell growth at 100 uM incubated for 48 hrs by sulforhodamine B assay relative to control; type: functional; settings: HOP-62, 48 h, read-out: Activity
K562 [6] = test: Growth inhibition of human K562 cells assessed as cell growth at 0.01 uM incubated for 48 hrs by sulforhodamine B assay relative to control; type: functional; settings: K562, 48 h, read-out: Activity
M14 = test: Growth inhibition of human M14 cells incubated for 48 hrs by sulforhodamine B assay; type: functional, cell-based; settings: M14, 48 h
LOX IMVI [7] = test: Growth inhibition of human LOXIMVI cells assessed as cell growth at 1 uM incubated for 48 hrs by sulforhodamine B assay relative to control; type: functional; settings: read-out: Activity
CAKI-1 [8] = test: Growth inhibition of human Caki1 cells assessed as cell growth at 0.1 uM incubated for 48 hrs by sulforhodamine B assay relative to control; type: functional; settings: CAKI-1, 48 h, read-out: Activity
SK-MEL-28 = test: Growth inhibition of human SK-MEL-28 cells assessed as cell growth at 100 uM incubated for 48 hrs by sulforhodamine B assay relative to control; type: functional; settings: SK-MEL-28, 48 h, read-out: Activity
COLO 205 [9] = test: Growth inhibition of human COLO205 cells assessed as cell growth at 1 uM incubated for 48 hrs by sulforhodamine B assay relative to control; type: functional; settings: COLO 205, 48 h, read-out: Activity
UACC-62 = test: Growth inhibition of human UACC62 cells assessed as cell growth at 0.1 uM incubated for 48 hrs by sulforhodamine B assay relative to control; type: functional; settings: UACC-62, 48 h, read-out: Activity
OVCAR-8 = test: Growth inhibition of human OVCAR8 cells assessed as cell growth at 0.1 uM incubated for 48 hrs by sulforhodamine B assay relative to control; type: functional; settings: OVCAR-8, 48 h, read-out: Activity
MDA-MB-468 = test: Growth inhibition of human MDA-MB-468 cells assessed as cell growth at 1 uM incubated for 48 hrs by sulforhodamine B assay relative to control; type: functional; settings: MDA-MB-468, 48 h, read-out: Activity
NCI-H23 = test: Growth inhibition of human NCI-H23 cells assessed as cell growth at 0.01 uM incubated for 48 hrs by sulforhodamine B assay relative to control; type: functional; settings: NCI-H23, 48 h, read-out: Activity
K562 [10] = test: Growth inhibition of human K562 cells assessed as cell growth at 1 uM incubated for 48 hrs by sulforhodamine B assay relative to control; type: functional; settings: K562, 48 h, read-out: Activity
Malme-3M = test: Growth inhibition of human MALME-3M cells assessed as cell growth at 0.1 uM incubated for 48 hrs by sulforhodamine B assay relative to control; type: functional; settings: read-out: Activity
CAKI-1 [11] = test: Growth inhibition of human Caki1 cells assessed as cell growth at 1 uM incubated for 48 hrs by sulforhodamine B assay relative to control; type: functional; settings: CAKI-1, 48 h, read-out: Activity
U-251 = test: Growth inhibition of human U251 cells incubated for 48 hrs by sulforhodamine B assay; type: functional, cell-based; settings: U-251, 48 h
NCI-H226 = test: Growth inhibition of human NCI-H226 cells assessed as cell growth at 0.01 uM incubated for 48 hrs by sulforhodamine B assay relative to control; type: functional; settings: NCI-H226, 48 h, read-out: Activity
COLO 205 [12] = test: Growth inhibition of human COLO205 cells incubated for 48 hrs by sulforhodamine B assay; type: functional, cell-based; settings: COLO 205, 48 h
SF-539 = test: Growth inhibition of human SF539 cells assessed as cell growth at 100 uM incubated for 48 hrs by sulforhodamine B assay relative to control; type: functional; settings: SF-539, 48 h, read-out: Activity
[13] = read-out: LC50 (the source's name)
[14] = read-out: pLC50 (the source's name) (converted)

With COc1cc(Cl)cc(-c2nn(-c3cccc(NC(=O)c4ccc(N5CCOCC5)c(C(F)(F)F)c4)c3)cc2-c2ccncc2)c1 the growth at 0.1 µM (DU-145) was 97%, the pIC50 (HCT-116) was 5.02 and the GI50 (HCT-116; read-out: GI50) was 9.54 µM. The CC50 (HCT-116; [13]) was over 100 µM, the TGI (HCT-116; read-out: TGI) was over 100 µM and the GI50 (HCT-116; read-out: pGI50 (converted)) was 9.55 µM. It also gave a CC50 (HCT-116; [14]) of over 100 µM, a TGI (HCT-116; read-out: pTGI (converted)) of over 100 µM and a growth at 0.1 µM (SK-OV-3) of 102%. For the same molecule, the growth at 0.1 µM (786-0 [1]) was 95%, the growth at 0.1 µM (MCF7 [2]) was 92% and the growth at 0.01 µM (MCF7 [3]) was 91%. The growth at 1 µM (786-0 [4]) was 74%, the growth at 0.01 µM (NCI-H522) was 94% and the growth at 0.1 µM (UACC-257) was 97%. It also gave a growth at 0.1 µM (NCI/ADR-RES) of 99%, a GI50 (LOX IMVI [5]; read-out: GI50) of 1.58 µM and a CC50 (LOX IMVI [5]; [13]) of over 100 µM. It also gave a TGI (LOX IMVI [5]; read-out: TGI) of over 100 µM, a GI50 (LOX IMVI [5]; read-out: pGI50 (converted)) of 15.8 µM and a CC50 (LOX IMVI [5]; [14]) of over 100 µM. The TGI (LOX IMVI [5]; read-out: pTGI (converted)) was over 100 µM, the GI50 (ACHN; read-out: GI50) was 7.31 µM and the CC50 (ACHN; [13]) was over 100 µM. For the same molecule, the TGI (ACHN; read-out: TGI) was over 100 µM, the GI50 (ACHN; read-out: pGI50 (converted)) was 7.24 µM and the CC50 (ACHN; [14]) was over 100 µM. It also gave a TGI (ACHN; read-out: pTGI (converted)) of over 100 µM, a growth at 100 µM (HOP-62) of 45% and a growth at 0.01 µM (K562 [6]) of 100%. For the same molecule, the GI50 (M14; read-out: GI50) was 7.93 µM, the CC50 (M14; [13]) was over 100 µM and the TGI (M14; read-out: TGI) was over 100 µM. For the same molecule, the GI50 (M14; read-out: pGI50 (converted)) was 7.94 µM, the CC50 (M14; [14]) was over 100 µM and the TGI (M14; read-out: pTGI (converted)) was over 100 µM. For the same molecule, the growth at 1 µM (LOX IMVI [7]) was 95%, the growth at 0.1 µM (CAKI-1 [8]) was 100% and the growth at 100 µM (SK-MEL-28) was 19%. For the same molecule, the growth at 1 µM (COLO 205 [9]) was 104%, the growth at 0.1 µM (UACC-62) was 91% and the growth at 0.1 µM (OVCAR-8) was 100%. The growth at 1 µM (MDA-MB-468) was 56%, the growth at 0.01 µM (NCI-H23) was 92% and the growth at 1 µM (K562 [10]) was 91%. The growth at 0.1 µM (Malme-3M) was 85%, the growth at 1 µM (CAKI-1 [11]) was 94% and the pIC50 (U-251) was 5.30. The GI50 (U-251; read-out: GI50) was 5.03 µM, the CC50 (U-251; [13]) was over 100 µM and the TGI (U-251; read-out: TGI) was over 100 µM. It also gave a GI50 (U-251; read-out: pGI50 (converted)) of 5.01 µM, a CC50 (U-251; [14]) of over 100 µM and a TGI (U-251; read-out: pTGI (converted)) of over 100 µM. The growth at 0.01 µM (NCI-H226) was 94%, the GI50 (COLO 205 [12]; read-out: GI50) was 2.22 µM and the CC50 (COLO 205 [12]; [13]) was over 100 µM. The TGI (COLO 205 [12]; read-out: TGI) was over 100 µM, the GI50 (COLO 205 [12]; read-out: pGI50 (converted)) was 22.4 µM and the CC50 (COLO 205 [12]; [14]) was over 100 µM. For the same molecule, the TGI (COLO 205 [12]; read-out: pTGI (converted)) was over 100 µM and the growth at 100 µM (SF-539) was 2%.
